Results from patent EP0760376A1, “PEPTIDES INHIBITING PHOSPHOLIPASE C” (Kyowa Hakko Kogyo Co., Ltd., priority 1995, dated 1996).
Converted amounts (≈) assume the structure as drawn. Square brackets hold non-standard residues; d marks the D form. Peptide text beside a SMILES is read from it. * marks the point of attachment. 12Ado = NCCCCCCCCCCCC(=O)O; Aun = NCCCCCCCCCCC(=O)O; Butyryl = CCCC(=O)*

How the values were obtained:
[1] = tested on: KMS-4 cells; assay: Cell growth-inhibiting activity (BrdU incorporation, cell growth detection kit); type: cell-based; conditions: Concentration 1 µM, culturing with peptide for 17 hours
Protocol: The cell growth-inhibiting activity was determined using a cell growth detection kit (Amersham) in the following manner. KMS-4 cells [M. Nanba et al, International Journal of Cancer, 32, 697 (1983)] were suspended in DMEM medium (Nissui Pharmaceutical Co., Ltd.) containing 10% fetal calf serum at a density of 1-2 x 10^4 cells/ml, and 1 ml of the cell suspension was put into each well of a 24-well plate (Corning Inc.). The cells were cultured in a CO2 incubator (37°C, 5% CO2) for 2 days. Then, the medium was replaced with a fresh DMEM medium containing 10% fetal calf serum, and the test peptide was added thereto, followed by culturing for 17 hours. The medium was replaced with a serum-free DMEM medium, and 0.5 ml of a solution prepared by diluting labeled reagent 5-bromo-2'-deoxyuridine (BrdU) and 5-fluoro-2'-deoxyuridine (FdU) (10:1) 1000-fold with the same medium was added to each well, followed by culturing for 2 hours. Then the medium was removed, and the cells were immobilized with an acetic acid/ethanol solution. The immobilized cells were stained according to the method for the cell growth detection kit of Amersham, and then further stained with a 1% Giemsa solution (Merck & Co., Inc.). The number of cells which incorporated BrdU and the total number of cells within one field of vision of a microscope (approximately 200 cells) were determined, and the proportion (%) of stained cells per field of vision was calculated. The above procedure was repeated 10 times, and the average value thereof was defined as the cell growth activity (%). The cell growth-inhibiting activity was calculated in the following manner. That is, the cell growth inhibition rate was calculated according to the following equation: X (%) = (1-B/A) x 100 [formula] where A is the growth activity when no peptide was added, and B is the growth activity when the test peptide was added.

[2] = target: T1, PLC-γ1 (Bos taurus, UniProt P08487); assay: PLC-inhibiting activity (release of [3H]inositol phosphate from [3H]PIP2); type: biochemical, bovine; conditions: 37°C, 10 minutes, pH 6.0, read-out: Inhibition rate (%)
T1 construct: A sample of PLC-γ1 was prepared from bovine thymus; from tissue; host or cells: bovine thymus
T1 sequence (P08487 1-1291): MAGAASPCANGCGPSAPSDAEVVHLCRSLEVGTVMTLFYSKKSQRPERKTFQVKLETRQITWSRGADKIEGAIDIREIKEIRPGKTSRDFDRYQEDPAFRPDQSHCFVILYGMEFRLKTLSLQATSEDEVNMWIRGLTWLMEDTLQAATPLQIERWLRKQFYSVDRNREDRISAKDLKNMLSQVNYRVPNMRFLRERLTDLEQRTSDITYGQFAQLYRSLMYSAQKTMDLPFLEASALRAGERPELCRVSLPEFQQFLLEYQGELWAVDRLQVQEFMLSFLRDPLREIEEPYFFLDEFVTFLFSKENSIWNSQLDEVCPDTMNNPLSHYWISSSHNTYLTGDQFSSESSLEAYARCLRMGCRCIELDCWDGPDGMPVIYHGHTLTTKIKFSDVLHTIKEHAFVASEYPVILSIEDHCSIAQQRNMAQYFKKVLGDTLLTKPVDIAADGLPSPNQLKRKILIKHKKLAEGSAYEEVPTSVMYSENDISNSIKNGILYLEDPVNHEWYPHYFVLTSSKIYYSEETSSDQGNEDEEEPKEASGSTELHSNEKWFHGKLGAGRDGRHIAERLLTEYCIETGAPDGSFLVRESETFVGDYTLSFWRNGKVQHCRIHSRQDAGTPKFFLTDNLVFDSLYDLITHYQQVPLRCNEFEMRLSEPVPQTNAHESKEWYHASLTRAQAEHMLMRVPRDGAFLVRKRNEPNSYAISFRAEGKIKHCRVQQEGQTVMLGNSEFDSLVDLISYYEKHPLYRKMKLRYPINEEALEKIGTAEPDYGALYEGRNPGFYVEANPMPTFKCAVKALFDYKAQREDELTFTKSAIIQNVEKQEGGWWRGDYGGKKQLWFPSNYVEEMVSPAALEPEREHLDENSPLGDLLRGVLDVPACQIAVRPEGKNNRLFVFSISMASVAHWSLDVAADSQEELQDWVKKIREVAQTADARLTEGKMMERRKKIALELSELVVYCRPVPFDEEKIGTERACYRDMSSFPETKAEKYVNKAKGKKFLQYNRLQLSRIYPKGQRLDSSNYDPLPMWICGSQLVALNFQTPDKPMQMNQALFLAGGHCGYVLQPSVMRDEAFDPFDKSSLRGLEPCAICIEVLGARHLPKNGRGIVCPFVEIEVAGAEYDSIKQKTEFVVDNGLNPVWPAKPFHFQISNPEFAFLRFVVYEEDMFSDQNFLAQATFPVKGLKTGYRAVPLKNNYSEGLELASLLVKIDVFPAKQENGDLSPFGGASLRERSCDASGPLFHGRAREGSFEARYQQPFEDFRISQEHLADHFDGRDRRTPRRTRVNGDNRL
Protocol: A sample of PLC-γ1 was prepared from bovine thymus according to the method described in Y. Honma et al., Biochem. J., 269, 13 (1990). A solution having the composition shown in Table 2 below was prepared on ice and was heated to 37°C to start reaction. After incubation for 10 minutes, 2 ml of a chloroform/methanol mixture (2:1, v/v) was added thereto to stop the reaction. The resulting inositol phosphate was extracted with 0.5 ml of 1 N hydrochloric acid. The extract was separated into two liquid phases by centrifugation (2000 x g, 3 minutes), and the amount of ^3H contained in the supernatant (0.7 ml) was measured with a scintillation counter. Table 2 [table] The inhibition rate (X) was calculated according to the following equation: X (%) = (A-C) / (B-C) x 100 [formula] where A is the obtained value of specific radioactivity, B is the value of specific radioactivity obtained when the same amount of water was added instead of the aqueous solution of the test peptide, and C is the value of specific radioactivity obtained when the same amount of water was added instead of the sample and the aqueous solution of the test peptide.

[3] = tested on: Bacillus subtilis No. 10707; type: cell-based; conditions: No. 10707, pH 7
Protocol: (§1) The antibacterial activity was determined by the agar dilution method using a medium (pH 7.0) which comprises 3 g/l Bacto-tryptone (Difco Laboratories), 1 g/l meat extract, 1 g/l glucose and 16 g/l agar.

[4] = tested on: Klebsiella pneumoniae ATCC 10031; assay: Antibacterial activity, agar dilution method; type: cell-based; conditions: medium pH 7.0
Protocol: as §1

[5] = tested on: Proteus vulgaris ATCC 6897; type: cell-based; conditions: ATCC 6897, pH 7
Protocol: as §1

[6] = tested on: Enterococcus hirae ATCC 10541; assay: Antibacterial activity, agar dilution method; type: cell-based; conditions: pH 7
Protocol: as §1

[7] = tested on: Pseudomonas aeruginosa Bin H No. 1; type: cell-based; conditions: Bin H No. 1, pH 7
Protocol: as §1

[8] = tested on: Staphylococcus aureus ATCC 6538P; type: cell-based; conditions: pH 7
Protocol: as §1

[9] = tested on: Candida albicans ATCC 10231; type: cell-based; conditions: ATCC 10231, pH 7
Protocol: as §1

inhibition at 116 µM ([2]; Concentration 116 µM (aqueous solution of test peptide provided for the test)) [%]	MIC (µg/ml) BS [3] [µg/mL]	MIC (µg/ml) KP [4] [µg/mL]	MIC (µg/ml) PV [5] [µg/mL]	MIC (µg/ml) EH [6] [µg/mL]	MIC (µg/ml) PA [7] [µg/mL]	MIC (µg/ml) SA [8] [µg/mL]	MIC (µg/ml) CA [9] [µg/mL]	inhibition at 23 µM ([2]; Concentration 23 µM (aqueous solution of test peptide provided for the test)) [%]	Compound	Inhibition rate (%) [1] [%]
85	43 (≈ 25 µM)	43 (≈ 25 µM)	43 (≈ 25 µM)	171 (≈ 99.5 µM)	85 (≈ 49.4 µM)	171 (≈ 99.5 µM)	171 (≈ 99.5 µM)	–	CSCC[C@H](NC(=O)[C@H](CCCCN)NC(=O)[C@H](CCCNC(=N)N)NC(=O)[C@H](Cc1ccc(O)cc1)NC(=O)[C@H](CC(C)C)NC(C)=O)C(=O)N[C@@H](CCCNC(=N)N)C(=O)N[C@@H](CC(C)C)C(=O)N[C@@H](CCCNC(=N)N)C(=O)N[C@@H](Cc1ccc(O)cc1)C(=O)N1CCC[C@H]1C(=O)N[C@H](C(=O)NCCCCCCCCCCC(N)=O)C(C)C [Compound (I-6), CH3CO-Leu-Tyr-Arg-Lys-Met-Arg-Leu-Arg-Tyr-Pro-Val-NH-(CH2)10CONH2] (Ac-LYRKMRLRYPV[Aun]-NH2)	57
–	50 (≈ 28.4 µM)	–	100 (≈ 56.8 µM)	–	200 (≈ 114 µM)	200 (≈ 114 µM)	–	73	CCCC(=O)N[C@@H](CC(C)C)C(=O)N[C@@H](Cc1ccc(O)cc1)C(=O)N[C@@H](CCCNC(=N)N)C(=O)N[C@@H](CCCCN)C(=O)N[C@@H](CCSC)C(=O)N[C@@H](CCCNC(=N)N)C(=O)N[C@@H](CC(C)C)C(=O)N[C@@H](CCCNC(=N)N)C(=O)N[C@@H](Cc1ccc(O)cc1)C(=O)N1CCC[C@H]1C(=O)N[C@H](C(=O)NCCCCCCCCCCCC(N)=O)C(C)C [Compound (I-9), C3H7CO-Leu-Tyr-Arg-Lys-Met-Arg-Leu-Arg-Tyr-Pro-Val-NH-(CH2)11CONH2] (Butyryl-LYRKMRLRYPV[12Ado]-NH2)	–
